{"source": "patent US20080176905A1", "about": "“Polymorphic forms of rosiglitazone hydrobromide and processes for preparation thereof” (priority 2007, published 2008)", "key": {"[1]": {"assay": "Crystalline stability of Form I under pressure, grinding and heating (XRD of resulting material)"}, "[2]": {"settings": "relative humidity 100%"}, "[3]": {"assay": "Weight loss on drying measured by TGA", "type": "physicochemical", "settings": "for Weight loss, as measured by TGA: general statement in description, hydrobromide", "description": "TGA analysis was preformed using Mettler 3M with Mettler TG 50 thermobalance. The weight of the samples was about 10 mg; the samples were scanned at a rate of 10° C./min from 25° C. to 200 or 250° C. The oven was constantly purged with nitrogen gas at a flow rate of 40 ml/min. Standard alumina crucibles covered by lids with 1 hole were used."}, "[4]": {"assay": "Water content by Karl Fisher (KF) analysis", "type": "physicochemical", "settings": "for Water content, as measured by KF: general statement in description, hydrobromide", "excerpt": "As used herein, the term “water content” refers to the content of water based upon the Loss on Drying method (the “LOD” method) as described in UPS 29-NF 24, official Aug. 1, 2006, Physical Test and Determinations, <731> LOSS ON DRYING or in Pharmacopeial Forum, Vol. 24, No. 1, p. 5438 (January-February 1998), the Karl Fisher assay for determining water content or thermogravimetric analysis (TGA). All percentages herein are by weight unless otherwise indicated. As used herein, the term “monohydrate” when used in reference to Rosiglitazone hydrobromide describes Rosiglitazone hydrobromide having water content of between about 3.9-4.1% w/w. As used herein, the term “hemi-hydrate” when used in reference to Rosiglitazone hydrobromide describes Rosiglitazone hydrobromide having a water content of about 1.8-2.1% w/w. As used herein, the term “quarter-hydrate” when used in reference to Rosiglitazone hydrobromide describes Rosiglitazone hydrobromide having a water content of about 0.7-1.0% w/w.\nWater content was determined by Karl Fisher analysis using Mettler Toledo DL 38 Karl Fisher Titrator."}, "[5]": {"assay": "Polymorphic stability of Form I in compacted tablet with excipients", "type": "physicochemical", "settings": "compacted with lactose monohydrate, sucrose and avicel", "excerpt": "Solid pharmaceutical compositions of Form I and the following excipients were compacted into a dosage form like a tablet: lactose monohydrate, sucrose and avicel. The polymorphic stability of Rosiglitazone form I in such tablet was examined and determined to be stable."}, "[6]": {"settings": "0 % RH, room temperature, 7 days"}, "[7]": {"settings": "100 % RH, room temperature, 7 days"}, "[8]": {"settings": "listed as Rosiglitazone hydrobromide Form I"}, "[9]": {"settings": "listed as Rosiglitazone hydrobromide Form II"}}, "note": "Counter-ions that a name gives are not always drawn."}
{"smiles": "CN(CCOc1ccc(CC2SC(=O)NC2=O)cc1)c1ccccn1", "note": "(centres unmarked) [Form I, Rosiglitazone hydrobromide]", "values": [{"measurement": "Stability under extreme heating conditions", "setting": "[1]; 80° C. for 30 minutes", "value": "stable"}, {"measurement": "Stability under high pressure and grinding conditions", "setting": "[1]; high pressure and grinding", "value": "stable"}, {"measurement": "Stability under extreme relative humidity conditions", "setting": "[2]", "value": "stable"}, {"measurement": "TGA (weight loss on drying)", "setting": "[3]; [6]", "value": 0.7}, {"measurement": "TGA (weight loss on drying)", "setting": "[3]; [7]", "value": 3.9}, {"measurement": "TGA (weight loss on drying)", "setting": "[3]; As is", "value": 4.1}, {"measurement": "Weight loss, as measured by TGA", "setting": "[3]; [8]", "value": "0.7-4.1 % by weight"}, {"measurement": "KF (water content)", "setting": "[4]; [6]", "value": 1, "unit": "%"}, {"measurement": "KF (water content)", "setting": "[4]; [7]", "value": 4.1, "unit": "%"}, {"measurement": "KF (water content)", "setting": "[4]; As is", "value": 4.1, "unit": "%"}, {"measurement": "Water content, as measured by KF", "setting": "[4]; [8]", "value": "1.0-4.1 % by weight"}, {"measurement": "Water content", "setting": "[4]; relative humidity of about 0%, corresponds to a quarter-hydrate", "value": "about 1%"}, {"measurement": "Water content", "setting": "[4]; relative humidity of about 50%, corresponds to a hemihydrate", "value": "about 2%"}, {"measurement": "Hydrate obtained on maintaining at relative humidity", "setting": "[4]; relative humidity of about 100%", "value": "a monohydrate is obtained"}, {"measurement": "Polymorphic stability in tablet", "setting": "[5]", "value": "stable"}]}
{"smiles": "CN(CCOc1ccc(CC2SC(=O)NC2=O)cc1)c1ccccn1", "note": "(centres unmarked) [Form II, Rosiglitazone hydrobromide]", "values": [{"measurement": "Weight loss, as measured by TGA", "setting": "[3]; [9]", "value": "about 3.9 % by weight"}, {"measurement": "Water content, as measured by KF", "setting": "[4]; [9]", "value": "about 4.1 % by weight"}]}
